The values that follow come from patent US11401246B2, “Triazole glycolate oxidase inhibitors” (CANTERO THERAPEUTICS, INC., priority 2018, dated 2022).

The target of the first assay is T1, human glycolate oxidase (hGO) (Homo sapiens, UniProt Q9UJM8).
T1 construct: His-tag (6 histidines, pET-15b) (N); made in house; host or cells: E. coli BL21 (DE3)
T1 sequence (Q9UJM8 1-370): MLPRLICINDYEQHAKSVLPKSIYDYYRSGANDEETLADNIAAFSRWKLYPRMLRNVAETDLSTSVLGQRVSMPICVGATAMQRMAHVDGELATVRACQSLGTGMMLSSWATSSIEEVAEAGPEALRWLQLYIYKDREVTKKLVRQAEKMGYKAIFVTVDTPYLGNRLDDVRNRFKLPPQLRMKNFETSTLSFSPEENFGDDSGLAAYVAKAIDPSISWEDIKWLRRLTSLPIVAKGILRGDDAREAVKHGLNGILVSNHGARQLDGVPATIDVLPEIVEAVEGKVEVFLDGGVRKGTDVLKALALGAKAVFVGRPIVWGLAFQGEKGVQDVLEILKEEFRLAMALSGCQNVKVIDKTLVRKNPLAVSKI
Nature of the assay: In vitro inhibition of human glycolate oxidase (enzymatic assay, HRP-coupled Trinder reaction).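 On % Inhibition: values are IC50 potency bins despite the % Inhibition label.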 It counts as biochemical.
Details: not given
The source says:
The catalytic reactions used for assaying glycolate oxidase activity in the presence of compounds according to the present disclosure are outlined in FIG. 2. Glycolate oxidase (GO)-catalyzed conversion of glycolate to glyoxylate (top reaction), with the concomitant reduction of the cofactor flavin mononucleotide (FMN), uses molecular oxygen (O2) for recovering its oxidative state, releasing hydrogen peroxide (H2O2). The Trinder reaction (bottom reaction), in which horseradish peroxidase (HRP) uses hydrogen peroxide, 4-aminoantipyrine and a phenol derivative (sulphonated DCIP) to generate a quinoneimine dye that is spectrophotometrically measured.
Human glycolate oxidase (hGO) expression. BL21 (DE3) E. coli transformed with recombinant pET-15b expression vector with the N-terminal His-tag human Hao1 cDNA was grown in LB medium in the presence of 0.1 mg/ml ampicillin. For purification of recombinant human glycolate oxidase (hGO) expressed in BL21 E. coli, bacteria pellets were thawed and re-suspended in 2 ml lysis buffer (50 mM NaH2PO4, 300 mM NaCl, 10 mM imidazole, 50 μM FMN, pH 7.5), and then treated for 30 minutes with 1 mM PMSF for protease inhibition, 0.1% Triton X-100 and 0.2 mg/ml lysozyme to break cellular membranes. After sonication, cells were centrifuged and the supernatant containing the total cellular extract (pre-column fraction) was loaded into a Ni-NTA agarose column and incubated for 30 minutes at 4° C. to allow binding of the 6 histidine tail of recombinant GO protein to the nickel ions. The column was washed with two bed volumes of lysis buffer with 20 mM imidazole to eliminate unbound proteins (wash fraction). GO was eluted using the same buffer with 300 mM imidazole. Fraction containing purified GO was dialyzed against 300 ml of dialysis buffer (50 mM NaH2PO4, 300 mM NaCl, pH 7.5) at 4° C. in agitation overnight, and then kept at 4° C. in darkness. Protein were quantified by the bicinchoninic acid (BCA) assay.
Enzymatic assays. Enzymatic activity of hGO was determined in the presence of glycolate as substrate (40 mM glycolic acid) and phosphate buffer (50 mM KPO4, 0.1 mM EDTA, pH 7). The production of glyoxylate was indirectly measured by the quantification of hydrogen peroxide formed during the first oxidation reaction. […] Enzymatic activity was calculated at 1 minute after initiation of the Trinder reaction.
Take `O=C(O)c1nn[nH]c1Oc1ccc(-c2ccccc2)cc1` [Example 42, 5-([1,1′-biphenyl]-4-yloxy)-1H-1,2,3-triazole-4-carboxylic Acid]: the IC50 was 100 to 200 nM.
Same read-out and setting: the result for `O=C(O)c1nn[nH]c1Oc1ccccc1` [Example 45, 5-phenoxy-1H-1,2,3-triazole-4-carboxylic Acid] reads more than 200 nM.
`COc1ccc(Oc2[nH]nnc2C(=O)O)cc1` [Example 46, 5-(4-methoxyphenoxy)-1H-1,2,3-triazole-4-carboxylic Acid] registered an IC50 of less than 100 nM.
For the molecule `O=C(O)c1nn[nH]c1Sc1ccc(Br)cc1` [Example 52, 5-((4-bromophenyl)thio)-1H-1,2,3-triazole-4-carboxylic Acid], the IC50 was 100 to 200 nM.
As for `O=C(O)c1nn[nH]c1Oc1ccc(C2CCCC2)cc1` [Example 69, 5-(4-cyclopentylphenoxy)-1H-1,2,3-triazole-4-carboxylic Acid], the IC50 is 100 to 200 nM.
As to `Cc1cc(Oc2[nH]nnc2C(=O)O)ccc1Br` [Example 71, 5-(4-bromo-3-methylphenoxy)-1H-1,2,3-triazole-4-carboxylic Acid], the IC50 is less than 100 nM.

The assay is the same for the next values; noted with them: recombinant hGO, 40 mM glycolic acid, pH 7, read at 515 nm, 1 minute after initiation of Trinder reaction; read-out: % Inhibition.
Take `O=C(O)c1nn[nH]c1Oc1ccc(-c2ccc(OC(F)F)cc2)cc1` [Example 39, 5-((4′-(difluoromethoxy)-[1,1′-biphenyl]-4-yl)oxy)-1H-1,2,3-triazole-4-carboxylic Acid]: the IC50 was in the range of 100 to 200 nM.
`O=C(O)c1nn[nH]c1Oc1ccc(-c2cccc(OC(F)F)c2)cc1` [Example 40, 5-((3′-(difluoromethoxy)-[1,1′-biphenyl]-4-yl)oxy)-1H-1,2,3-triazole-4-carboxylic Acid]: the IC50 is less than 100 nM.
Take `O=C(O)c1nn[nH]c1Oc1ccc(-c2ccoc2)cc1` [Example 41, 5-(4-(furan-3-yl)phenoxy)-1H-1,2,3-triazole-4-carboxylic Acid]: the IC50 is 100 to 200 nM.
Same read-out and setting: the result for `Cc1ccc(Oc2[nH]nnc2C(=O)O)cc1` [Example 43, 5-(p-tolyloxy)-1H-1,2,3-triazole-4-carboxylic Acid] reads 100 to 200 nM.
In the case of `O=C(O)c1nn[nH]c1Oc1ccc(-c2cccc(OC(F)F)c2)nc1` [Example 44, 5-((6-(3-(difluoromethoxy)phenyl)pyridin-3-yl)oxy)-1H-1,2,3-triazole-4-carboxylic Acid], the IC50 lay in the range of 100 to 200 nM.
In the case of `O=C(O)c1nn[nH]c1Sc1ccc(F)cc1` [Example 47, 5-((4-fluorophenyl)thio)-1H-1,2,3-triazole-4-carboxylic Acid], the IC50 lay in the range of 100 to 200 nM.
For the molecule `O=C(O)c1nn[nH]c1Oc1ccc(Br)c(Cl)c1` [Example 48, 5-(4-bromo-3-chlorophenoxy)-1H-1,2,3-triazole-4-carboxylic Acid], the IC50 was less than 100 nM.
In the case of `O=C(O)c1nn[nH]c1Oc1ccc(Cl)nc1` [Example 49, 5-((6-chloropyridin-3-yl)oxy)-1H-1,2,3-triazole-4-carboxylic Acid], the IC50 is less than 100 nM.
As to `O=C(O)c1nn[nH]c1Oc1ccc(Br)cc1F` [Example 51, 5-(4-bromo-2-fluorophenoxy)-1H-1,2,3-triazole-4-carboxylic Acid], the IC50 was less than 100 nM.
On to `N#Cc1ccc(Oc2[nH]nnc2C(=O)O)cc1` [Example 53, 5-(4-cyanophenoxy)-1H-1,2,3-triazole-4-carboxylic Acid], for which the IC50 was less than 100 nM.
On the same count and under the same terms, the result for `Cc1ccc(Oc2[nH]nnc2C(=O)O)cn1` [Example 54, 5-((6-methylpyridin-3-yl)oxy)-1H-1,2,3-triazole-4-carboxylic Acid] reads more than 200 nM; that for `N#Cc1ccc(-c2ccc(Oc3[nH]nnc3C(=O)O)cn2)cc1` [Example 55, 5-((6-(4-cyanophenyl)pyridin-3-yl)oxy)-1H-1,2,3-triazole-4-carboxylic Acid], less than 100 nM; that for `NC(=O)c1ccc(Oc2[nH]nnc2C(=O)O)cc1` [Example 56, 5-(4-carbamoylphenoxy)-1H-1,2,3-triazole-4-carboxylic Acid], more than 200 nM.
As to `O=C(O)c1nn[nH]c1Oc1cccnc1F` [Example 57, 5-((2-fluoropyridin-3-yl)oxy)-1H-1,2,3-triazole-4-carboxylic Acid], the IC50 was more than 200 nM.
The same measure, in the same setting: the result for `CN(C)c1cccc(Oc2[nH]nnc2C(=O)O)c1` [Example 58, 5-(3-(dimethylamino)phenoxy)-1H-1,2,3-triazole-4-carboxylic Acid] reads less than 100 nM; that for `Cc1ncc(-c2cccc(Oc3[nH]nnc3C(=O)O)c2)cn1` [Example 59, 5-(3-(2-methylpyrimidin-5-yl)phenoxy)-1H-1,2,3-triazole-4-carboxylic Acid], less than 100 nM.
On the same count and under the same terms, the result for `O=C(O)c1nn[nH]c1Oc1ccc(C(F)(F)F)cc1` [Example 60, 5-(4-(trifluoromethyl)phenoxy)-1H-1,2,3-triazole-4-carboxylic Acid] reads less than 100 nM; that for `O=C(O)c1nn[nH]c1Oc1cccc(-c2cccnc2F)c1` [Example 61, 5-(3-(2-fluoropyridin-3-yl)phenoxy)-1H-1,2,3-triazole-4-carboxylic Acid], less than 100 nM.
As to `O=C(O)c1nn[nH]c1Sc1ccc(-c2cccnc2F)cc1` [Example 62, 5-((4-(2-fluoropyridin-3-yl)phenyl)thio)-1H-1,2,3-triazole-4-carboxylic Acid], the IC50 was in the range of 100 to 200 nM.
`NC(=O)c1ccc(-c2cccc(Oc3[nH]nnc3C(=O)O)c2)cc1` [Example 63, 5-((4′-carbamoyl-[1,1′-biphenyl]-3-yl)oxy)-1H-1,2,3-triazole-4-carboxylic Acid]: the IC50 was 100 to 200 nM.
`N#Cc1ccc(-c2cccc(Oc3[nH]nnc3C(=O)O)c2)cc1` [Example 64, 5-((4′-cyano-[1,1′-biphenyl]-3-yl)oxy)-1H-1,2,3-triazole-4-carboxylic Acid]: the IC50 was 100 to 200 nM.
Turning to `CN1CCN(c2ccc(Oc3[nH]nnc3C(=O)O)cc2)CC1` [Example 65, 5-(4-(4-methylpiperazin-1-yl)phenoxy)-1H-1,2,3-triazole-4-carboxylic Acid], the IC50 was more than 200 nM.
`O=C(O)c1nn[nH]c1Oc1cccnc1Br` [Example 66, 5-((2-bromopyridin-3-yl)oxy)-1H-1,2,3-triazole-4-carboxylic Acid]: the IC50 is more than 200 nM.
For `Cc1ccc(Oc2[nH]nnc2C(=O)O)c(C)n1` [Example 67, 5-((2,6-dimethylpyridin-3-yl)oxy)-1H-1,2,3-triazole-4-carboxylic Acid], the IC50 is more than 200 nM.
Still for that read-out and setting: the result for `CC(C)(C)c1ccc(Oc2[nH]nnc2C(=O)O)cc1` [Example 68, 5-(4-(tert-butyl)phenoxy)-1H-1,2,3-triazole-4-carboxylic Acid] reads more than 200 nM.
Take `COc1ccc(Oc2[nH]nnc2C(=O)O)cn1` [Example 70, 5-((6-methoxypyridin-3-yl)oxy)-1H-1,2,3-triazole-4-carboxylic Acid]: the IC50 was more than 200 nM.
As to `Cc1cc(Oc2[nH]nnc2C(=O)O)ccc1-c1cccnc1F` [Example 72, 5-(4-(2-fluoropyridin-3-yl)-3-methylphenoxy)-1H-1,2,3-triazole-4-carboxylic Acid], the IC50 is less than 100 nM.
The same measure, in the same setting: the result for `Cc1nc(F)ccc1-c1ccc(Oc2[nH]nnc2C(=O)O)cc1` [Example 73, 5-(4-(6-fluoro-2-methylpyridin-3-yl)phenoxy)-1H-1,2,3-triazole-4-carboxylic Acid] reads less than 100 nM; that for `Cc1cc(F)nc(-c2ccc(Oc3[nH]nnc3C(=O)O)cc2)c1` [Example 74, 5-(4-(6-fluoro-4-methylpyridin-2-yl)phenoxy)-1H-1,2,3-triazole-4-carboxylic Acid], less than 100 nM; that for `Cc1c(-c2ccc(Oc3[nH]nnc3C(=O)O)cc2)ccnc1F` [Example 75, 5-(4-(2-fluoro-3-methylpyridin-4-yl)phenoxy)-1H-1,2,3-triazole-4-carboxylic Acid], less than 100 nM.
The same measure, in the same setting: the result for `O=C(O)c1nn[nH]c1Oc1ccc(C23CC(C2)C3)cc1` [Example 76, 5-(4-(3-bicyclo[1.1.1]pentan-1-yl)phenoxy)-1H-1,2,3-triazole-4-carboxylic Acid] reads less than 100 nM.
